Experimental data reported in patent publication US11230545B2, “Heterocyclic compound” (Takeda Pharmaceutical Company Limited, priority 2018, dated 2022).

How the values were obtained:
recombinant human MALT1 = molecular target: T1, recombinant human MALT1 (Homo sapiens, UniProt Q9UDY8); assay: Measurement of MALT1 enzyme inhibitory activity; format: biochemical; settings: read-out: MALT1 enzyme inhibition rate (%) at 3 μM compound
T1 construct: to form a human MALT1 (340-789aa) dimer; His tag (from pET28a, N-terminal) (N); yeast GCN4 leucine zipper (251-281aa), fusion partner for dimerisation (N); translates to GSGSGS), between GCN4 zipper and MALT1 (N); His tag (C-terminal) (C); made in house; host or cells: E. coli BL21 (DE3)
T1 sequence (Q9UDY8 340-789): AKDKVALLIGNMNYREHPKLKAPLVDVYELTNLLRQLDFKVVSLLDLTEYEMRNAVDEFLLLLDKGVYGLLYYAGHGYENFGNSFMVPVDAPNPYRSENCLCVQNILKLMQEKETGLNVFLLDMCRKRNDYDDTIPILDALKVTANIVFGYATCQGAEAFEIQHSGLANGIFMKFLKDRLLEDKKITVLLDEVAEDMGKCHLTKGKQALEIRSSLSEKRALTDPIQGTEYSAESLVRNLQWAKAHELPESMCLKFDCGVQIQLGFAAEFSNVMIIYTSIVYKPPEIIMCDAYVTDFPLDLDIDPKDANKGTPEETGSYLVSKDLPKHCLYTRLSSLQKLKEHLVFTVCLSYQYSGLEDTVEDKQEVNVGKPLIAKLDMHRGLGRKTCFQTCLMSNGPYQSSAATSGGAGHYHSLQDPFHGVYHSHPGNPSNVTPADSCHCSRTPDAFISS
T1 sequence (P03069 251-281 partner limits assumed): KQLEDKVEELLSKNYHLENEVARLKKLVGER
Description: On the human MALT1 gene, PCR was carried out using GC-030-[…] (pENTR221/MALT1, GeneCopoeia) as a template with primers having BamH I restriction enzyme at the N-terminal and Not I restriction enzyme at the C-terminal to form a human MALT1 (340-789aa) dimer. […] Both of the obtained fragments were treated with the restriction enzymes, and inserted between Nde I and Not I of a pET28a (Novagen) vector to yield a recombinant human MALT1 protein expression vector pET28a/His-LZ-hMALT1v1 (340-789)-His. The recombinant human MALT1 protein was prepared by transforming the expression plasmid prepared as above with ECOS Competent E. coli BL21 (DE3) (Nippon Gene Co., Ltd.). Escherichia coli obtained by transformation was inoculated into 300 mL of LB medium (1% tryptone, 0.5% yeast extract, 0.5% sodium chloride, 0.01% ampicillin) and cultured at 30° C. for 16 hours. […] Furthermore, culturing was carried out for 16 hours to induce expression of human MALT1 protein. After completion of the culture, the culture solution was centrifuged at 5,000 rpm for 10 minutes. […] This crushed liquid was centrifuged (15,300×G, 30 min, TOMY MX-301), and the obtained supernatant was passed through and adsorbed to a Ni-NTA Superflow (QIAGEN) column previously equilibrated with 50 mM Tris-HCl pH 8.0, 300 mM NaCl, 5 mM DTT and 10% glycerol, followed by elution in a buffer containing 50 mM Tris-HCl pH 8.0, 300 mM NaCl, 5 mM DTT, 10% glycerol and 250 mM imidazole. […] The prepared protein was stored at -30° C., and the protein concentration was measured with a BCA Protein Assay Kit (PIERCE) using BSA as a standard. […] Subsequently, 2 μL of a purified recombinant human MALT1 enzyme solution was added, followed by incubation for 60 minutes at room temperature. To the mixture were added 2 μL of a substrate solution (75 μM Ac-LRSR-AFC (SM Biochemicals), 20 mM HEPES (Dojin Laboratories), 10 mM KCl (Wako Pure Chemical Industries, Ltd.), 1.5 mM MgCl2 (Sigma-Aldrich), 1 mM EDTA (pH 8.0) (Nippon Gene Co., Ltd.), 0.01% Triton X-100 (Sigma-Aldrich) and 1 mM DTT (Wako Pure Chemical Industries, Ltd.), followed by incubation for 60 minutes at room temperature. The fluorescence values of excitation 400 nm and emission 485 nm immediately after substrate addition and after enzymatic reaction were measured with a plate reader Envision (PerkinElmer), and the fluorescence values increased by enzymatic reaction were used for calculation of the inhibition rate (%).

OCI-Ly3 cells = assay: Measurement of growth inhibitory activity using OCI-Ly3 cells; format: cell-based; settings: Homo sapiens, 144 h, 3 μm compound, 6 days, read-out: Cell growth inhibition rate (%) at 3 μm compound
Description: OCI-Ly3 cells were seeded in a cell culture medium IMDM (Fujifilm Wako Pure Chemical Corporation) containing 20% FCS (fetal calf serum, Thermo Fisher Scientific) and monothioglycerol (Fujifilm Wako Pure Chemical Corporation) so as to be at 1.25×10^3 cells/well on a 96-well plate. Cell Titer-Glo solution (Promega) was added to cells to which the test compound had not been added, followed by stirring at room temperature for 15 minutes. Subsequently, the luminescence value was measured with Envision (PerkinElmer) on the day of seeding. Cells to which the test compound dissolved in dimethyl sulfoxide (Fujifilm Wako Pure Chemical Corporation) had been added were allowed to stand in a CO2 incubator (37° C.) for 6 days. Subsequently, the luminescence value was measured in the same manner. The inhibition rate (%) of the test compound on OCI-Ly3 cell growth was calculated by the following formula. Cell growth inhibition rate (%)=(1−(Luminescent value on day 6 of test compound treatment−Luminescent value before test compound treatment)/(Luminescent value on day 6 without compound addition−Luminescent value before compound treatment))×100

[1] = tested on: Human diffuse large-cell B-cell lymphoma cells OCI-Ly3; assay: Antitumor effect on OCI-Ly3 cell-bearing cancer model; format: in vivo; settings: average tumor volume increase ratio; 10 mg/kg orally twice daily for 3 weeks; NOG female mice, OCI-Ly3 subcutaneous
Description: Human diffuse large-cell B-cell lymphoma cells OCI-Ly3 (DSMZ, German Collection of Microorganisms and Cell Cultures) were suspended in a Matrigel (BD Biosciences):HBSS (Thermo Fisher Scientific)=1:1 solution, and 1×10^7 cells were transplanted subcutaneously into the abdomen of NOG female mice (CLEA Japan, Inc.). The tumor diameter of the engrafted tumor was measured, and the tumor volume was calculated by the following formula. Tumor volume=major axis×minor axis×minor axis×(½)
Individuals with the engrafted tumor having a tumor volume of about 120 mm^3 were selected, and 6 animals per group were used in the experiment. A suspension of the test compound in 0.5% methylcellulose solution (Fujifilm Wako Pure Chemical Corporation) was orally administered at a dose of 10 mg/kg (10 mL/kg) twice daily for 3 weeks. The tumor volume was measured on the day before the start of administration and every 3 to 4 days over time, and the tumor diameter was finally measured the day after the end of administration for 21 days to calculate the tumor volume. The tumor growth of the test compound-administered group compared with the control-administered group was calculated by the following formula as an average tumor volume increase ratio T/C. T/C=((Tumor volume after the end of administration for the test compound-administered group−Tumor volume of the day before the start of administration for the test compound-administered group)/(Tumor volume after the end of administration for the control-administered group−Tumor volume of the day before the start of administration for the control-administered group))×100

Which inhibition at 3 µM (recombinant human MALT1) does the source give for CO[C@@H](C)c1c(NC(=O)Nc2cnc(OC(F)F)c(Cl)c2)cnn2cc(C)nc12 [Example 1, (S)—N-(5-Chloro-6-(difluoromethoxy)pyridin-3-yl)-N′-(8-(1-methoxyethyl)-2-methylimidazo[1,2-b]pyridazin-7-yl)urea] here?
The inhibition at 3 µM was 104%.

What about the inhibition at 3 µM (OCI-Ly3 cells) of the same compound?
Its inhibition at 3 µM is 96%.

What about the “T/C (%)” value [1] of the same compound?
Its value is 13.4%.

Which inhibition at 3 µM (recombinant human MALT1) does the source give for CO[C@@H](C)c1c(NC(=O)Nc2cnc(-n3nccn3)c(C(F)(F)F)c2)cnc2ccc(Cl)nc12 [Example 2, (S)—N-(6-Chloro-4-(1-methoxyethyl)-1,5-naphthyridin-3-yl)-N′-(6-(2H-1,2,3-triazol-2-yl)-5-(trifluoromethyl)pyridin-3-yl)urea] here?
Its inhibition at 3 µM is 99%.

What about the inhibition at 3 µM (OCI-Ly3 cells) of the same compound?
The inhibition at 3 µM was 97%.

What about the “T/C (%)” value [1] of the same compound?
Its value is 2.0%.

For CO[C@@H](C)c1c(NC(=O)Nc2cnc(-n3nccn3)c(C(F)(F)F)c2)cnc2ccc(C)nc12 [Example 3, (S)—N-(4-(1-Methoxyethyl)-6-methyl-1,5-naphthyridin-3-yl)-N′-(6-(2H-1,2,3-triazol-2-yl)-5-(trifluoromethyl)pyridin-3-yl)urea], which inhibition at 3 µM (recombinant human MALT1) is on record?
Its inhibition at 3 µM is 101%.

What about the inhibition at 3 µM (OCI-Ly3 cells) of the same compound?
The inhibition at 3 µM was 99%.

And the “T/C (%)” value [1]?
The value was 38.7%.

Which results are given for CO[C@@H](C)c1c(NC(=O)Nc2cnc(-n3nccn3)c(Cl)c2)cnn2cc(C)nc12 [Example 4, (S)—N-(5-Chloro-6-(2H-1,2,3-triazol-2-yl)pyridin-3-yl)-N′-(8-(1-methoxyethyl)-2-methylimidazo[1,2-b]pyridazin-7-yl)urea]?
inhibition at 3 µM (recombinant human MALT1): 111%; inhibition at 3 µM (OCI-Ly3 cells): 97%; T/C (%) [1]: 43.3%
